Laboratory results: paper PMC8535469, “Insight into the Binding and Hydrolytic Preferences of hNudt16 Based on Nucleotide Diphosphate Substrates” (International Journal of Molecular Sciences, 2021)
Read-outs that look alike come from different tables or passages of the source.

Key:
hNudt16E76Q [1] = target: T1, hNudt16E76Q (Homo sapiens, UniProt Q96DE0, E76Q); test: Thermal stability of hNudt16E76Q with ligands, dye-free nanoDSF; type: binding; conditions: for Tm, nanoDSF (Dye-Free) / ∆Tm, nanoDSF (Dye-Free): 5 µM hNudt16E76Q, 20 mM MgCl2, 0.5 mM ligand; for ∆Tm, nanoDSF (Dye-Free): relative to apo
T1 construct: 4xHis (four added histidines); made in house; host or cells: E. coli Rosetta 2 (DE3), pET16b
T1 sequence (Q96DE0 whole entry E76Q): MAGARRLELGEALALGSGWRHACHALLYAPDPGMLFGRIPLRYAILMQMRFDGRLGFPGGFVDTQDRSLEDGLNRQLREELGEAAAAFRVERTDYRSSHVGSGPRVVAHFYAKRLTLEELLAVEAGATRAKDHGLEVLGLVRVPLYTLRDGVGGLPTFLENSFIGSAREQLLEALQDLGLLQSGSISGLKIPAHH
Procedure: (§1) Protein thermal stability in the presence of various ligands was measured using two DSF methods: assays with SYPRO orange dye and dye-free assays. DSF assays with SYPRO orange dye were performed at specific ligand concentrations for each protein–ligand pair. This measurement was performed as described in Section 4.6.1, with a constant MgCl2 concentration of 20 mM and a concentration of the tested ligand maintained at 0.5 mM. DSF dye-free measurements were performed using a Prometheus NT.48 nanoDSF device (NanoTemper Technologies, München, Germany). The composition of the samples was identical to that in the DSF with SYPRO orange dye measurements, without the addition of any dye. […] The measurements were performed at a single ligand concentration for all ligands. After 10 min of pre-incubation, the samples were loaded into standard capillaries (NanoTemper Technologies, München, Germany). […] We fitted the melting temperatures (Tm) globally for at least three independent experiments (but separately for different DSF methods).

hNudt16E76Q [2] = target: T1, hNudt16E76Q; test: Microscale thermophoresis (MST) binding, two independent binding sites model; conditions: for ΔGdiss1 (for Kd1): calculated as −RTlnKd from MST Kd1; for ΔGdiss2 (for Kd2): calculated as −RTlnKd from MST Kd2
Procedure: Binding constants for protein–ligand pairs were established using the MST method. The hNudt16 E76Q was labeled with RED-tris-NTA 2nd Generation dye (Monolith HIS-tag labeling Kit, NanoTemper Technologies, München, Germany) according to the manufacturer’s instructions. Measurements were carried out in a wide range of ligand concentrations, selected after preliminary tests for each of the ligands. The results obtained were used to determine of binding parameters for a given ligand. Each MST measurement consisted of a series of 16 serial 1:2 dilutions of the ligand, and was performed at a constant dye-labeled protein concentration of 50 nM. After 10 min of pre-incubation, dye-labeled protein–ligand samples were manually loaded into Monolith™ NT.115 Premium Capillaries (NanoTemper Technologies, München, Germany) and analyzed using the Monolith NT.115 (NanoTemper Technologies). […] Analysis was performed using Origin package (OriginLab, Northampton, MA, USA) and dissociation constants were fitted globally for a series of at least six MST pseudo-titration experiments for each ligand. Up to 10 replicates were performed for some ligands.
For the dissociation constants obtained, we also calculated the free energy associated with the dissociation of the complex ΔGdiss according to the equation: ΔGdiss=−RTlnKd.

hNudt16E76Q [3] = target: T1, hNudt16E76Q; test: Thermal stability of hNudt16E76Q with ligands, DSF with SYPRO Orange; type: binding; conditions: 5 µM hNudt16E76Q, 20 mM MgCl2, 0.5 mM ligand, 4× SYPRO Orange; for ∆Tm, DSF (with SYPRO Orange): relative to apo
Procedure: The protein thermal stability of wild-type hNudt16 and all tested mutants in the presence of increasing Mg^2+ ion concentration was measured using DSF with SYPRO orange dye on CFX RT-PCR (Bio-Rad, Hercules, CA, USA). This method is based on the change in fluorescence of the SYPRO orange dye in an aqueous buffer, which is strongly quenched, while its binding to the exposed hydrophobic regions of thermally unfolded protein results in an increased fluorescence. The optimal concentrations of protein, SYPRO orange dye, and buffer composition, in particular ion content, were determined. The samples were prepared and measured in clear 96-well multiplate PCR plates for RT-PCR (Bio-Rad, Hercules, CA, USA). […] The individual components of the solution were added in equal volumes to each well, with a final sample volume of 25 μL/well. The samples were gently mixed, and the 96-well plate was covered with optically clear PCR sealing tape (Bio-Rad, Hercules, CA, USA) to prevent evaporation. […] The data processing procedure was performed using Bio-Rad CFX Manager (version 1.6.541.1028), and melting point temperatures were calculated as the minimum of the first derivative plot.
as §1

hNudt16 = hNudt16 (Homo sapiens, UniProt Q96DE0); test: Enzymatic hydrolysis catalyzed by hNudt16, products quantified by HPLC; type: biochemical; set-up: 4xHis (four added histidines); made in house; conditions: 20 µM substrate, 37 °C; for Hydrolysis Products / Hydrolysis Rate, v/[E]0 (hydrolyzed substrate per minute per [enzyme] µM) / Hydrolysis Rate, v/µg (hydrolyzed substrate per minute per enzyme µg): pH 7.9, 6 mM MgCl2, nd = hydrolysis products not detected; for Susceptibility to hydrolysis by hNudt16 (in words): HPLC
hNudt16, sequence (Q96DE0 whole entry): as the sequence (Q96DE0 whole entry E76Q) above, with Q76E counted along it
Procedure: Enzymatic hydrolysis catalyzed by hNudt16 was performed at 37 °C in 40 mM Tris buffer (pH 7.9) containing 100 mM NaCl, 6 mM MgCl2, and 2 mM DTT. The concentration of the investigated dinucleotides and mononucleotides was 20 µM in the reaction mixture.
The hydrolytic susceptibility of the compounds was studied using HPLC. Before each experiment, 1 mL of buffer solution containing the analyte was incubated at 37 °C for 10 min. The hydrolysis process was initiated by the addition of hNudt16. To analyze the reaction progress, 200-µL aliquots of the reaction mixture were withdrawn and incubated at 96 °C for 5 min to stop the reaction through heat inactivation of the enzyme. The samples were then subjected to an HPLC system (Agilent 1200 series, Agilent Technologies, California, USA) with a reverse-phase Supelcosil LC-18-T column and UV/VIS detector. The substrates and hydrolysis products were eluted at 20 °C with a linear gradient of methanol in 0.1 M KH2PO4 (from 0% to 40%) over 15 min at a flow rate of 1.0 mL/min. Changes in the absorbance at 260 nm were continuously monitored during the analysis. Hydrolysis products were identified by comparing their retention times with those of the reference samples. The extent of decapping, determined as the percentage of the hydrolyzed substrate, was calculated using the area under the chromatographic peak of the respective compounds.

[4] = stronger binding site, 50 nM dye-labeled protein, read-out: Kd1
[5] = second, weaker binding site, read-out: Kd2

Compound | Tm, nanoDSF (Dye-Free) (hNudt16E76Q [1]) [°C] | ∆Tm, nanoDSF (Dye-Free) (hNudt16E76Q [1]) [°C] | ΔGdiss1 (for Kd1) (hNudt16E76Q [2]) [kcal/mol] | Kd (hNudt16E76Q [2]; [4]) [µM] | Tm, DSF (with SYPRO Orange) (hNudt16E76Q [3]) [°C] | ∆Tm, DSF (with SYPRO Orange) (hNudt16E76Q [3]) [°C] | Hydrolysis Products (hNudt16) | Hydrolysis Rate, v/[E]0 (hydrolyzed substrate per minute per [enzyme] µM) (hNudt16) | Hydrolysis Rate, v/µg (hydrolyzed substrate per minute per enzyme µg) (hNudt16) [µM/min/µg] | ΔGdiss2 (for Kd2) (hNudt16E76Q [2]) [kcal/mol] | Kd (hNudt16E76Q [2]; [5]) [µM] | ΔTm relative to the apo form, both DSF and nanoDSF (hNudt16E76Q [1]; 0.5 mM ligand, stated for both types of measurements) | Susceptibility to hydrolysis by hNudt16 (in words) (hNudt16)
Nc1ncnc2c1ncn2[C@@H]1O[C@H](COP(=O)(O)OP(=O)(O)OC[C@H]2O[C@@H](n3cnc4c(N)ncnc43)[C@H](O)[C@@H]2O)[C@@H](O)[C@H]1O [AppA] | 66.8 ± 0.1 | 1.7 ± 0.1 | 4.192 | 833 | 65.2 ± 0.1 | 1.5 ± 0.1 | AMP | 40.8 ± 2.9 µM/min/[E]0 | 1.70 ± 0.12 |  |  |  | 
Nc1ccn([C@@H]2O[C@H](COP(=O)(O)OP(=O)(O)O)[C@@H](O)[C@H]2O)c(=O)n1 [CDP, Cytidine diphosphate] | 66.8 ± 0.1 | 1.66 ± 0.1 |  |  | 65.6 ± 0.1 | 1.81 ± 0.1 |  |  |  |  |  |  | 
Nc1nc2c(ncn2[C@@H]2O[C@H](COP(=O)(O)OP(=O)(O)O)[C@@H](O)[C@H]2O)c(=O)[nH]1 [GDP, Guanosine diphosphate] | 78.6 ± 0.1 | 13.5 ± 0.1 | 8.97 | 0.258 ± 0.045 | 77.0 ± 0.1 | 13.3 ± 0.1 |  |  |  | 5.911 | 45.6 ± 2.4 |  | 
Nc1nc2c(ncn2[C@@H]2O[C@H](COP(=O)(O)OP(=O)(O)OP(=O)(O)OC[C@H]3O[C@@H](n4cnc5c(=O)[nH]c(N)nc54)[C@H](O)[C@@H]3O)[C@@H](O)[C@H]2O)c(=O)[nH]1 [GpppG] | 76.0 ± 0.1 | 10.9 ± 0.1 |  |  | 74.8 ± 0.1 | 11.0 ± 0.1 |  |  |  |  |  |  | 
O=c1[nH]cnc2c1ncn2[C@@H]1O[C@H](COP(=O)(O)OP(=O)(O)O)[C@@H](O)[C@H]1O [IDP, Inosine diphosphate] | 82.9 ± 0.1 | 17.8 ± 0.1 | 10.04 |  | 81.5 ± 0.1 | 17.8 ± 0.1 |  |  |  | 8.078 | 1.2 ± 0.2 | 17.5–18.0 °C | very rapid hydrolysis reaction
NC(=O)c1ccc[n+]([C@@H]2O[C@H](COP(=O)([O-])OP(=O)(O)OC[C@H]3O[C@@H](n4cnc5c(N)ncnc54)[C@H](O)[C@@H]3O)[C@@H](O)[C@H]2O)c1 [NAD, Nicotinamide adenine dinucleotide] | 66.1 ± 0.1 | 1.1 ± 0.1 |  |  | 63.7 ± 0.1 | 0.0 ± 0.1 | NMN + AMP | 3.4 ± 0.4 µM/min/[E]0 | 0.14 ± 0.02 |  |  |  | 
NC(=O)C1=CN([C@@H]2O[C@H](COP(=O)(O)OP(=O)(O)OC[C@H]3O[C@@H](n4cnc5c(N)ncnc54)[C@H](O)[C@@H]3O)[C@@H](O)[C@H]2O)C=CC1 [NADH, Reduced NAD+] | 67.4 ± 0.1 | 2.4 ± 0.1 |  |  | 64.9 ± 0.1 | 1.1 ± 0.1 | AMP + NMNH | 18.7 ± 1.5 µM/min/[E]0 | 0.78 ± 0.06 |  |  |  | 
CC(C)(COP(=O)(O)OP(=O)(O)OC[C@H]1O[C@@H](n2cnc3c(N)ncnc32)[C@H](O)[C@@H]1O)[C@@H](O)C(=O)NCCC(=O)NCCS [dpCoA, Dephospho-coenzyme A] | 68.1 ± 0.1 | 3.1 ± 0.1 | 5.951 | 43 | 67.0 ± 0.1 | 3.3 ± 0.1 | AMP + dpCop | 18.0 ± 1.3 µM/min/[E]0 | 0.75 ± 0.05 | ≤2.481 | ≥ 15000 |  | 
C[n+]1cn([C@@H]2O[C@H](COP(=O)(O)OP(=O)(O)O)[C@@H](O)[C@H]2O)c2nc(N)[nH]c(=O)c21 [m^7GDP, 7-methylguanosine diphosphate] | 66.7 ± 0.1 | 1.6 ± 0.1 |  |  | 64.4 ± 0.1 | 0.7 ± 0.1 |  |  |  |  |  |  | resistant to hydrolytic cleavage
Cn1c[n+]([C@@H]2O[C@H](COP(=O)(O)OP(=O)([O-])OP(=O)(O)OC[C@H]3O[C@@H](n4cnc5c(=O)[nH]c(N)nc54)[C@H](O)[C@@H]3O)[C@@H](O)[C@H]2O)c2nc(N)[nH]c(=O)c21 [m^7GpppG] | 73.5 ± 0.1 | 8.4 ± 0.1 | 8.026 | 1.7 | 72.3 ± 0.1 | 8.5 ± 0.1 |  |  |  |  | 230 ± 57 |  | 
